Data as given in US9168329B2, “Beta-peptides with antifungal activity” (Wisconsin Alumni Research Foundation, priority 2006, dated 2015).

Assays:
[1] = system: Candida albicans (SC5314, ATCC 24433, ATCC 90028); format: cell-based
Procedure: Minimum inhibitory concentration assay. Minimum inhibitory concentrations (MIC) for the β-peptides were determined using the broth microdilution assay described by the Committee for Clinical and Laboratory Standards (formerly known as the National Committee for Clinical Laboratory Standards) (National Committee for Clinical Laboratory Standards Reference method for broth dilution antifungal susceptibility testing of yeasts: approved standard—second edition; NCCLS document M27-A2; NCCLS: Wayne, Pa., 2002). Three strains of Candida albicans were used: SC5314, ATCC 24433, and ATCC 90028. Cells were grown for 24 hours on Sabouraud dextrose agar at 30° C. After 24 hours of growth, the cells were suspended in 0.145 M saline, and the concentration was adjusted to between 1×10^6 cells/mL and 5×10^6 cells/mL in saline. The working suspension was obtained by diluting the suspension 1:1000 in RPMI 1640 (with L-glutamine and without sodium bicarbonate, Invitrogen) buffered with 0.145 mol/L 3-(N-morpholino) propanesulfonic acid (MOPS).
Twofold serial dilutions of stock solutions of α- or β-peptides or amphotericin B (Calbiochem, solubilized in dimethyl sulfoxide) were made in RPMI 1640, and 100 μL aliquots were put into 96-well plates (Falcon). An equal volume of the cell suspension was added to the wells for a total volume of 200 μL. Growth controls and sterility controls were included.
Plates were incubated at 35° C. for 48 h and then visually inspected for fungal growth. […] Experiments were performed in duplicate and repeated on at least two different days.

[2] = system: Candida albicans biofilms (ATCC 90028, ATCC 24433, SC5314); experiment: Biofilm antifungal susceptibility testing (pre-formed biofilms, XTT); format: cell-based
Procedure: The susceptibility of Candida albicans biofilms to β-peptide treatment was evaluated using procedures based on the method described by Ramage and Lopez-Ribot. (Ramage, G.; Lopez-Ribot, J. L. Methods Mol. Med. 2005, 118, 71-79). ATCC 90028, ATCC 24433, and SC5314 were grown in liquid yeast peptone dextrose (YPD) medium overnight at 30° C. The cells were washed two times with phosphate-buffered saline (PBS, pH 7.2) and resuspended in RPMI 1640 (with L-glutamine and without sodium bicarbonate, Invitrogen) buffered with 0.145 mol/L 3-(N-morpholino) propanesulfonic acid (MOPS). After adjusting the cell suspension to about 1×10^6 cells/mL in RPMI 1640, 100 μL of the cell suspension was added to selected wells of flat-bottom 96-well plates (Falcon), leaving the last column of wells empty for background controls. Plates were covered and incubated at 37° C. for 48 hours to allow biofilms to form.
After formation, biofilms were washed three times with 200 μL of PBS per well to remove nonadherent cells. Twofold serial dilutions of β-peptide in RPMI 1640 were made, and 100 μL was added to the biofilms in the first 10 columns of the 96-well plates. RPMI 1640 without antifungal (100 μL) was added to the wells in column 11 to serve as a positive growth control. Plates were covered and incubated at 37° C. for an additional 48 hours and then washed as before.
A solution of 0.5 g/L of 2,3-bis(2-methoxy-4-nitro-5-sulfo-phenyl)-2H-tetrazolium-5-carboxanilide (XTT, Sigma) was prepared, and 10 mM menadione (Sigma) in acetone was added to give a final menadione concentration of 1 μM. The XTT solution (100 μL) was added to each well containing a biofilm and to the empty column of wells. The plates were incubated for 1.5 hours at 37° C. to allow the C. albicans cells to reduce the XTT. Following incubation, 75 μL of XTT solution was removed from each well and put into a new 96-well plate to measure the absorbance at 490 nm. The reduction of growth for each concentration of β-peptide was calculated from
[formula] where A490^peptide is the average absorbance for wells containing a specified concentration of a β-peptide, A490^no drug is the average absorbance for wells with biofilms not treated with antifungal, and A490^XTT is the average absorbance for wells containing only XTT. At least three replicates were included for each combination of β-peptide and C. albicans strains. Assay for Biofilm Formation in the Presence of β-Peptide

[3] = system: C. albicans; conditions: cited from earlier work
[4] = system: Candida albicans (SC5314, ATCC 24433, ATCC 90028); conditions: from NCCLS document M27-A2; cited from earlier work
[5] = system: human red blood cells (hRBC); experiment: Hemolysis assay; format: cell-based
Procedure: Hemolysis assay. The hemolysis assay was performed using human red blood cells (hRBC) as described previously (Raguse, et al. J. Am. Chem. Soc. 2002, 124, 12774-12785; Porter, et al. J. Am. Chem. Soc. 2005, 127, 11516-11529). The hRBC were washed three times in TRIS-buffered saline (TBS; 10 mM TRIS, 150 mM NaCl, pH 7.2) and then diluted to a concentration of 1% (v/v) in TBS. The hRBC suspension (80 μL) was added to twofold dilutions of peptides in TBS (20 μL) in a 96-well plate (Falcon). Wells containing hRBC treated with 20 μL TBS provided a negative control, and wells with high concentrations of the peptide melittin (Sigma) served as a positive control. After incubating at 37° C. for 1 h, plates were centrifuged, and 50 μL of the supernatant was diluted with 50 μL of water in a fresh 96-well plate. The absorbance of the diluted supernatant was measured at 405 nm, and the percent hemolysis for each well was calculated from
[formula] where A405^peptide is the absorbance for the supernatant of hRBC treated with peptide, A405^buffer is the absorbance for the supernatant of hRBC in TBS, and A405^completlysis is the average absorbance for the supernatant of cells treated with melittin at concentrations of 50-400 μg/mL. Experiments were performed in duplicate on at least two different days. Biofilm Antifungal Susceptibility Testing

[6] = system: C. albicans strain SC5314; experiment: Assay for biofilm formation in the presence of β-peptide; format: cell-based, Candida albicans
Procedure: The ability of Candida albicans to form biofilms in the presence of β-peptide was tested using a procedure modified from the protocol for testing biofilms pre-formed in 96-well plates. C. albicans strain SC5314 was grown in liquid yeast peptone dextrose (YPD) medium overnight at 30° C., and the cells were washed twice with PBS (pH 7.2). Cells were resuspended in RPMI 1640, and the cell concentration was adjusted to about 2×10^6 cells/mL in RPMI 1640.
Twofold serial dilutions of β-peptide and amphotericin B were prepared in RPMI 1640, and 50 μL of each dilution was added to wells of a 96-well plate. At least three replicates were included. β-Peptide-free control wells were also included. An equal volume of the cell suspension was added to give a final cell concentration of 1×10^6 cells/mL. Plates were covered and placed in a 37° C. incubator for 48 hours.
After allowing biofilms to form for 48 hours, nonadherent cells were removed from the wells by washing the biofilms three times with 200 μL of PBS per well. A 0.5 g/L XTT solution with 1 μM menadione was prepared, and 100 μL was added to each biofilm formation well and to empty wells for XTT background measurements. […] The absorbance of the solution in each well was measured at 490 nm, and the reduction of growth for biofilms grown in the presence of β-peptide and amphotericin B compared to biofilms grown in medium only was calculated from […]

[7] = pH 7, physiological ionic strength

For `CCCCCCCCCCCCCCC(=O)N[C@H](CC(=O)N[C@H]1CCCC[C@@H]1C(=O)N[C@H]1CCCC[C@@H]1C(=O)N[C@@H](CCCCN)CC(=O)N[C@H]1CCCC[C@@H]1C(=O)N[C@H]1CCCC[C@@H]1C(=O)N[C@@H](CCCCN)CC(=O)N[C@H]1CCCC[C@@H]1C(=O)N[C@H]1CCCC[C@@H]1C(=O)N[C@@H](CCCCN)CC(N)=O)Cc1ccc(O)cc1` [C15-β^3Tyr-(ACHC-ACHC-β^3Lys)3], the “antifungal activity in the planktonic NCCLS assay (in words)” value (from here on “antifungal activity”) [1, 7] was “lacking activity in the planktonic assay”, the MIC ([1]; planktonic, strain not stated) was > 128 µg/mL and the “reduction in biofilm growth” value ([2]; at the highest concentration tested) was “barely surpassed this mark”. For the same compound, the “activity in the biofilm killing assay (in words)” value ([2]; pre-formed biofilms) was “low activity”.
For magainin 2, the “concentration reducing C. albicans growth by 50%” value ([3]; pH 7, low ionic strength solutions) is given as “below 1 μg/ml” and the “activity against C. albicans (in words)” value ([3]; pH 7, physiologic ionic strength) is given as “inactive”.
With β^3Tyr-ACHC-(ACHC-β^3Lys)3-ACHC-ACHC the “antifungal activity” value [1, 7] was “lacking activity in the planktonic assay” and the “activity in the biofilm killing assay (in words)” value ([2]; pre-formed biofilms) was “low activity”.
For `C[C@@H]1[C@H](O)[C@@H](C)/C=C/C=C/C=C/C=C/C=C/C=C/C=C/[C@H](O[C@@H]2O[C@H](C)[C@@H](O)[C@H](N)[C@@H]2O)C[C@@H]2O[C@](O)(C[C@@H](O)C[C@@H](O)[C@H](O)CC[C@@H](O)C[C@@H](O)CC(=O)O[C@H]1C)C[C@H](O)[C@H]2C(=O)O` [Amphotericin B], the MIC range [4] is listed as 0.3 to 2.2 µM.
In the case of `CC(C)[C@@H](CC(=O)N[C@@H](CCCCN)CC(=O)N[C@H]1CCCC[C@@H]1C(=O)N[C@H](CC(=O)N[C@@H](CCCCN)CC(=O)N[C@H]1CCCC[C@@H]1C(=O)N[C@H](CC(=O)N[C@@H](CCCCN)CC(N)=O)C(C)C)C(C)C)NC(=O)[C@H]1CCCC[C@@H]1NC(=O)C[C@@H](N)Cc1ccc(O)cc1` [β-peptide 1, β^3Tyr-(ACHC-β^3Val-β^3Lys)3], the “Average MIC” value ([1]; average over three C. albicans strains, pH 7, physiological ionic strength, Table 1 prints no unit) is reported as 16 µg/mL, the “antifungal activity” value [1, 7] is reported as “showed activity in the planktonic assay” and the “% Hemolysis at MIC” value [5] is reported as 21%. The “concentration killing (nearly all cells in) pre-formed biofilms” value ([2]; pre-formed biofilms) was 256 µg/mL, the “biofilm-preventing concentration relative to planktonic MIC” value [6] was “two times its planktonic MIC” and the “concentration completely preventing biofilm formation” value [6] was 32 µg/mL.
In the case of `OC(Cn1cncn1)(Cn1cncn1)c1ccc(F)cc1F` [fluconazole], the MIC range [4] is listed as 0.8 to 3.3 µM.
For β^3Tyr-(ACHC-β^3Val-β^3Lys)2, the “antifungal activity” value [1, 7] was “lacking activity in the planktonic assay” and the “activity in the biofilm killing assay (in words)” value ([2]; pre-formed biofilms) was “low activity”.
